Experimental data taken from patent US20240208989A1, “NOVEL 12-EPI-MUTILIN COMPOUNDS AND USES THEREOF” (NABRIVA THERAPEUTICS GMBH, priority 2021, published 2024).
Converted amounts (≈) assume the structure as drawn. Structures can show the parent of a compound that is named as a salt. Where two headings read alike, the source gives them in different places.

Experiments:
[1] = test system: Staphylococcus aureus vga(A) (+); assay: MIC by standard broth microdilution (CLSI), CAMHB; type: cell-based; settings: Lefamulin resistant; for MIC: Staphylococcus aureus
Experimental: (§1) The in vitro activity against bacteria including isolates that are resistant to Lefamulin was determined by standard broth microdilution according to the Clinical and Laboratory Standards Institute CLSI document (Performance Standards for Antimicrobial Susceptibility Testing) M100Ed29E (2019) and (Methods for Dilution Antimicrobial Susceptibility Test for Bacteria That Grow Aerobically) M07Ed11 (2018) or other years' versions thereof. The data were obtained using cation-adjusted Mueller Hinton broth medium (CAMHB).

[2] = test system: Streptococcus agalactiae lsa(E); assay: MIC by standard broth microdilution (CLSI), CAMHB; type: cell-based; settings: for MIC: Streptococcus agalactiae, read-out: MIC Streptococcus agalactiae lsa(E) (n = 2), Lefamulin resistant, n = 2 isolates
Experimental: as §1

[3] = test system: Staphylococcus aureus cfr (+); assay: MIC by standard broth microdilution (CLSI), CAMHB; type: cell-based; settings: for MIC: Staphylococcus aureus, read-out: MIC Staphylococcus aureus cfr (+) (n = 2), Lefamulin resistant, n = 2 isolates
Experimental: as §1

[4] = test system: Streptococcus pneumoniae ATCC49619; assay: MIC by standard broth microdilution (CLSI), CAMHB; type: cell-based; settings: for MIC: Streptococcus pneumoniae, ATCC49619
Experimental: as §1

[5] = test system: Staphylococcus aureus ATCC49951; assay: MIC by standard broth microdilution (CLSI), CAMHB; type: cell-based; settings: for MIC: Staphylococcus aureus, ATCC49951
Experimental: as §1

[6] = test system: Borreliella spp.; assay: MIC by broth microdilution against Borreliella strains; type: cell-based, Borreliella burgdorferi (n=5) and Borreliella garinii (n=1); settings: BSK II medium, n = 6 isolates
Experimental: Minimal inhibitory concentrations (MIC) were determined against five (n=5) Borreliella burgdorferi isolates (ATCC 51990, 55131, 35211, 35210, 53899) and one (n=1) Borreliella garinii isolate (ATCC 51991) by broth microdilution technique ([…]., Jorgensen, J. H., Barbour, A. G. In vitro antimicrobial susceptibility testing of Boreliella burgdorferi: a microdilution MIC method and time-kill studies. […] Feng, J., Wang, T., Shi, W., et al. Identification of novel activity against Boreliella burgdorferi persisters using an FDA approved drug library. […] (2018) Methods for dilution antimicrobial susceptibility tests for bacteria that grow aerobically: Eleventh edition. […]; CLSI. (2021) Performance Standards for Antimicrobial Susceptibility Testing: Thirty-first Edition. M100-S31). Briefly, Borreliella spp. were grown at 36° C. under microaerophilic conditions in BSK II medium until the logarithmic or stationary growth phase was reached. The growth phase was determined by semiquantitative measurement of active and dormant cells by fluorescence microscopy of cells stained with the fluorescent dyes SYBR Green I and propidium iodide. An inoculum of 10^5-10^6 spirochetes/mL was used to inoculate broth microdilution plates containing serially 2-fold diluted test compounds.

[7] = test system: Cutibacterium granulosum; assay: MIC by standard agar dilution (CLSI M11), anaerobic; type: cell-based; settings: Wilkins-Chalgren-Agar, 48 h, 37° C., read-out: MIC Cutibacterium granulosum (n = 7)
[8] = test system: Cutibacterium avidum; assay: as above; type: cell-based; settings: Wilkins-Chalgren-Agar, 48 h, 37° C., read-out: MIC Cutibacterium avidum (n = 5)
[9] = test system: Cutibacterium acnes; assay: as above; type: cell-based; settings: Wilkins-Chalgren-Agar, 48 h, 37° C., read-out: MIC Cutibacterium acnes (n = 5)
[10] = Cytotoxicity, human hepatocyte assay (ATPlite); type: cell-based; settings: primary human hepatocytes
Experimental: The cytotoxicity for compounds of the present invention was determined using a human hepatocyte assay. Primary human hepatocytes were incubated with various test compound concentrations (in triplicate) for 2 hours. Viability of cells is then measured by the luminescence ATPlite detection assay system according to the manufacturer (Perkin Elmer). ATP is a marker for cell viability because it is present in all metabolically active cells and the concentration declines very rapidly when the cells undergo necrosis or apoptosis. The ATPlite assay system is based on the production of light caused by the reaction of ATP with added luciferase and D-luciferin, where the emitted light is proportional to the ATP concentration (within certain limits).

[11] = Lefamulin resistant, n = 2 isolates
[12] = 192 h, stationary growth phase, read after 8 days, read-out: MIC (μg/mL) for Stationary Growth Phase Culture (n = 6)
[13] = logarithmic growth phase, read after 5 or 6 days, read-out: MIC (μg/mL) for Logarithmic Growth Phase Culture (n = 6)

Row | Compound | MIC [6, 12] | MIC [6, 13] | MIC [7] | MIC [8] | MIC [9] | other results
1 | 12-epi-12-desvinyl-14-O-[(azepan-4-ylsulfanyl)-acetyl]-12-((E)-2-pyridin-3-yl-ethenyl) mutilin hydrochloride [Example 154 of WO 2015/110481, reference compound] |  |  |  |  |  | MIC Staphylococcus aureus vga(A) (+) [1]: 2 to 4 µg/mL; MIC Streptococcus agalactiae lsa(E) (n = 2) [2, 11]: 4 to 8 µg/mL; MIC Staphylococcus aureus cfr (+) (n = 2) [3, 11]: 0.5 to 4 µg/mL; MIC Streptococcus pneumoniae ATCC49619 [4]: ≤0.03 µg/mL; MIC Staphylococcus aureus ATCC49951 [5]: ≤0.03 µg/mL
2 | CC1(C)S[C@@H]2[C@H](NC(=O)[C@H](N)c3ccc(O)cc3)C(=O)N2[C@H]1C(=O)O [Amoxicillin] | 0.03 to 0.12 µg/mL (≈ 0.0821 to 0.328 µM) | 0.03 to 0.12 µg/mL (≈ 0.0821 to 0.328 µM) |  |  |  | 
3 | CC[C@H]1OC(=O)[C@H](C)[C@@H](O[C@H]2C[C@@](C)(OC)[C@@H](O)[C@H](C)O2)[C@H](C)[C@@H](O[C@@H]2O[C@H](C)C[C@H](N(C)C)[C@H]2O)[C@](C)(O)C[C@@H](C)CN(C)[C@H](C)[C@@H](O)[C@]1(C)O [Azithromycin] | 0.001 to 0.004 µg/mL (≈ 0.00134 to 0.00534 µM) | 0.001 to 0.004 µg/mL (≈ 0.00134 to 0.00534 µM) |  |  |  | 
4 | Cc1nccnc1/C=C/[C@@]1(C)C[C@@H](OC(=O)CSC2CCNCC2)[C@]2(C)[C@H](C)CC[C@]3(CCC(=O)[C@H]32)[C@@H](C)[C@@H]1O [BC-9842, 12-epi-12-desvinyl-14-O-[(Piperidin-4-ylsulfanyl]-acetyl]-12-[2-(3-methyl-pyrazin-2-yl)-ethenyl]-mutilin] | 0.001 to 0.004 µg/mL (≈ 0.00175 to 0.00702 µM) | 0.001 to 0.004 µg/mL (≈ 0.00175 to 0.00702 µM) | 0.015 to 0.12 µg/mL (≈ 0.0263 to 0.211 µM) | 0.015 to 0.25 µg/mL (≈ 0.0263 to 0.439 µM) | 0.03 to 0.05 µg/mL (≈ 0.0526 to 0.0877 µM) | 
5 | CO/N=C(\C(=O)N[C@@H]1C(=O)N2C(C(=O)O)=C(CSc3nc(=O)c(=O)[nH]n3C)CS[C@H]12)c1csc(N)n1 [Ceftriaxone] | 0.004 to 0.03 µg/mL (≈ 0.00721 to 0.0541 µM) | 0.004 to 0.016 µg/mL (≈ 0.00721 to 0.0289 µM) |  |  |  | 
6 | CO/N=C(\C(=O)N[C@@H]1C(=O)N2C(C(=O)O)=C(COC(N)=O)CS[C@H]12)c1ccco1 [Cefuroxime] | 0.016 to 0.25 µg/mL (≈ 0.0377 to 0.589 µM) | 0.016 to 0.25 µg/mL (≈ 0.0377 to 0.589 µM) |  |  |  | 
7 | C[C@H]1c2cccc(O)c2C(=O)C2=C(O)[C@]3(O)C(=O)C(C(N)=O)=C(O)[C@@H](N(C)C)[C@@H]3[C@@H](O)[C@@H]21 [Doxycycline] | 0.03 to 0.5 µg/mL (≈ 0.0675 to 1.13 µM) | 0.03 to 0.5 µg/mL (≈ 0.0675 to 1.13 µM) |  |  |  | 
8 | CC[C@H]1OC(=O)[C@H](C)[C@@H](O[C@H]2C[C@@](C)(OC)[C@@H](O)[C@H](C)O2)[C@H](C)[C@@H](O[C@@H]2O[C@H](C)C[C@H](N(C)C)[C@H]2O)[C@](C)(O)C[C@@H](C)C(=O)[C@H](C)[C@@H](O)[C@]1(C)O [Erythromycin] | 0.001 to 0.004 µg/mL (≈ 0.00136 to 0.00545 µM) | 0.002 to 0.016 µg/mL (≈ 0.00273 to 0.0218 µM) |  |  |  | 
9 | C[C@@H]1CC[C@@]23CCC(=O)[C@H]2[C@]1(C)[C@H](OC(=O)CS[C@H]1CO[C@H]2[C@@H]1OC[C@@H]2N)C[C@](C)(/C=C/c1cccnc1)[C@@H](O)[C@@H]3C [Example 1, 12-epi-12-Desvinyl-14-O-{[(3S,3aR,6S,6aS)-3-amino-2,3,3a,5,6,6a-hexahydrofuro[3,2-b]furan-6-yl]sulfanylacetyl}-12-[(E)-2-(3-pyridyl)-ethenyl]-mutilin dihydrochloride] | 0.001 to 0.004 µg/mL | 0.001 to 0.002 µg/mL | 0.015 to 0.03 µg/mL | 0.015 to 0.06 µg/mL | 0.015 to 0.12 µg/mL | IC50 at 2 h [10]: 215 µM; MIC [1]: 0.5 µg/mL; MIC [2]: 0.06 to 0.12 µg/mL; MIC [3]: 0.12 to 0.5 µg/mL; MIC [4]: ≤ 0.03 µg/mL; MIC [5]: ≤ 0.03 µg/mL
10 | C[C@@H]1CC[C@@]23CCC(=O)[C@H]2[C@]1(C)[C@H](OC(=O)CS[C@H]1CO[C@H]2[C@@H]1OC[C@@H]2N)C[C@](C)(/C=C/c1cncnc1)[C@@H](O)[C@@H]3C [Example 2, 12-epi-12-Desvinyl-14-O-{[(3S,3aR,6S,6aS)-3-amino-2,3,3a,5,6,6a-hexahydrofuro[3,2-b]furan-6-yl]sulfanylacetyl}-12-[(E)-2-(pyrimidin-5-yl)-ethenyl]-mutilin dihydrochloride] | 0.001 to 0.004 µg/mL | 0.001 to 0.002 µg/mL | 0.015 to 0.03 µg/mL | 0.015 to 0.06 µg/mL | 0.015 to 0.12 µg/mL | IC50 at 2 h [10]: > 609 µM; MIC [1]: 1 µg/mL; MIC [2]: 0.03 to 0.06 µg/mL; MIC [3]: 0.12 to 1 µg/mL; MIC [4]: ≤ 0.03 µg/mL; MIC [5]: ≤ 0.03 µg/mL
11 | Cc1nccnc1/C=C/[C@@]1(C)C[C@@H](OC(=O)CS[C@H]2CO[C@H]3[C@@H]2OC[C@@H]3N)[C@]2(C)[C@H](C)CC[C@]3(CCC(=O)[C@H]32)[C@@H](C)[C@@H]1O [Example 3, 12-epi-12-Desvinyl-14-O-{[(3S,3aR,6S,6aS)-3-amino-2,3,3a,5,6,6a-hexahydrofuro[3,2-b]furan-6-yl]sulfanylacetyl}-12-[(E)-2-(3-methyl-pyrazin-2-yl)-ethenyl]-mutilin dihydrochloride] | 0.001 to 0.008 µg/mL | 0.001 to 0.004 µg/mL | 0.015 to 0.12 µg/mL | 0.03 to 0.25 µg/mL | 0.03 to 0.5 µg/mL | IC50 at 2 h [10]: > 433 µM; MIC [1]: 1 µg/mL; MIC [2]: 0.5 to 1 µg/mL; MIC [3]: 1 µg/mL; MIC [4]: ≤ 0.03 µg/mL; MIC [5]: ≤ 0.03 µg/mL
12 | C=C[C@]1(C)C[C@@H](OC(=O)CS[C@@H]2CC[C@@H](N)C[C@H]2O)[C@]2(C)[C@H](C)CC[C@]3(CCC(=O)[C@H]32)[C@@H](C)[C@@H]1O [Lefamulin, reference compound] | 0.001 to 0.008 µg/mL (≈ 0.00197 to 0.0158 µM) | 0.001 to 0.008 µg/mL (≈ 0.00197 to 0.0158 µM) | 0.015 to 0.25 µg/mL (≈ 0.0295 to 0.492 µM) | 0.03 to 0.06 µg/mL (≈ 0.0591 to 0.118 µM) | 0.03 to 0.5 µg/mL (≈ 0.0591 to 0.985 µM) | MIC [1]: 8 µg/mL (≈ 15.8 µM); MIC [2]: 16 µg/mL (≈ 31.5 µM); MIC [3]: 16 µg/mL (≈ 31.5 µM); MIC [4]: ≤ 0.03 µg/mL; MIC [5]: ≤ 0.03 µg/mL
13 | C[C@H]1COc2c(N3CCN(C)CC3)c(F)cc3c(=O)c(C(=O)O)cn1c23 [Levofloxacin] | 2 to 8 µg/mL (≈ 5.53 to 22.1 µM) | 2 to 4 µg/mL (≈ 5.53 to 11.1 µM) |  |  |  | 
14 | C=C[C@]1(C)C[C@@H](OC(=O)CO)[C@]2(C)[C@H](C)CC[C@]3(CCC(=O)[C@H]32)[C@@H](C)[C@@H]1O [Pleuromutilin] | 0.12 to 2 µg/mL (≈ 0.317 to 5.28 µM) | 0.12 to 1 µg/mL (≈ 0.317 to 2.64 µM) |  |  |  | 
